# Data: ChEMBL document CHEMBL4834420, “Projected Dose Optimization of Amino- and Hydroxypyrrolidine Purine PI3Kδ Immunomodulators” (J Med Chem, 2021)
# Legend:
# [1] = target: PI3-kinase p110-delta/p85-alpha (Homo sapiens, UniProt O00329); assay: Inhibition of N-terminal His6-tagged recombinant full length human p110delta/untagged recombinant full length human p85alpha expressed in baculovirus infected Sf21 insect cells using PIP2 as substrate preincubated for 15 mins followed by substrate addition and measured after 1 hr by HTRF assay
# [2] = target: T1, Phosphatidylinositol 4,5-bisphosphate 3-kinase catalytic subunit delta isoform (Homo sapiens, UniProt O00329); assay: Inhibition of PI3Kdelta in human Ramos cells assessed as reduction in anti-IgM-antibody-induced phosphorylation of AKT at Ser473 residue preincubated for 20 mins followed by anti-IgM antibody stimulation and measured after 30 mins by alphascreen assay; assay type: cell-based
# T1 sequence (O00329 whole entry): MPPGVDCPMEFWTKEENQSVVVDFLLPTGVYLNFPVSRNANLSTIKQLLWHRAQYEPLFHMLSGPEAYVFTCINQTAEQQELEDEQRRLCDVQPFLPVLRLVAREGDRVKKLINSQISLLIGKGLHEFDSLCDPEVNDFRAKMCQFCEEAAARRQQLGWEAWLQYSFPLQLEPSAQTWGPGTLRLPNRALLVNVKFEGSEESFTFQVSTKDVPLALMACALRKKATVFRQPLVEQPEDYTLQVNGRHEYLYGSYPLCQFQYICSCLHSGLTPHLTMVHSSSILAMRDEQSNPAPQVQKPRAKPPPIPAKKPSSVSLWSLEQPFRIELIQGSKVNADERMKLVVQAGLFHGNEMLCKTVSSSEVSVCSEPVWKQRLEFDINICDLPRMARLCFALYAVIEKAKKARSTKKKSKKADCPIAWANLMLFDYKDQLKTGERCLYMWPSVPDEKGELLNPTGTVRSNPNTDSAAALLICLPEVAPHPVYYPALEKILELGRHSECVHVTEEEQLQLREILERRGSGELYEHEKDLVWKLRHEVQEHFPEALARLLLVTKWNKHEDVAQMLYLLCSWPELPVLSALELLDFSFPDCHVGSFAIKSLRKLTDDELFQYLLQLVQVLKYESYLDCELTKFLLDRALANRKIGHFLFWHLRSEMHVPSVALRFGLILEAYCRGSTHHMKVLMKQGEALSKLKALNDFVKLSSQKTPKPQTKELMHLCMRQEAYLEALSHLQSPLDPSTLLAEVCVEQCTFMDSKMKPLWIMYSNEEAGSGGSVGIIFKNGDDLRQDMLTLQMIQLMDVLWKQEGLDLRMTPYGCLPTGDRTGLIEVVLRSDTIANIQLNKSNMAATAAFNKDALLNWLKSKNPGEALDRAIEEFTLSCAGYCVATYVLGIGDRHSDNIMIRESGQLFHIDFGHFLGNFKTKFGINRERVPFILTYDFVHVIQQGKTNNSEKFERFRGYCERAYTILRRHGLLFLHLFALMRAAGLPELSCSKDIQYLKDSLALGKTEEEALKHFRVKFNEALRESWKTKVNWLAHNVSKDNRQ
# [3] = Inhibition of adenosine transporter in human HeLa cells assessed as reduction in [3H]adenosine uptake preincubated for 30 mins followed by [3H]adenosine addition and measured after 60 mins; assay type: cell-based
# [4] = Lipophilicity, log D of the compound by HPLC analysis; assay type: physicochemical
# [5] = Plasma clearance in Wistar Han rat at 0.5 mg/kg, iv or 1 mg/kg, po; assay type: ADME, organism-based
# [6] = Intrinsic clearance in Wistar Han rat at 0.5 mg/kg, iv or 1 mg/kg, po; assay type: ADME, organism-based; details: in vivo
# [7] = Volume of distribution in Wistar Han rat; assay type: ADME; details: in vivo
# [8] = Unbound volume of distribution in Wistar Han rat; assay type: ADME; details: in vivo
# [9] = Half-life in Wistar Han rat; assay type: ADME; details: in vivo
# [10] = Oral bioavailability in Wistar Han rat; assay type: ADME, organism-based; details: in vivo
# [11] = target: T1, Phosphatidylinositol 4,5-bisphosphate 3-kinase catalytic subunit delta isoform; assay: Inhibition of PI3Kdelta in human whole blood assessed as reduction in anti-CD79b antibody-induced CD69 expression preincubated for 60 mins followed by anti-CD79b antibody stimulation and measured after 3 hrs by FACS analysis; assay type: tissue-based
# [12] = Apparent permeability in pig LLC-PK1 cells; assay type: ADME, cell-based, Sus scrofa
# [13] = Plasma clearance in Beagle dog at 0.25 mg/kg, iv or 0.5 mg/kg, po; assay type: ADME, organism-based, Canis lupus familiaris
# [14] = Intrinsic clearance in Beagle dog at 0.25 mg/kg, iv or 0.5 mg/kg, po; assay type: ADME, organism-based, Canis lupus familiaris; details: in vivo
# [15] = Volume of distribution in Beagle dog; assay type: ADME, Canis lupus familiaris; details: in vivo
# [16] = Unbound volume of distribution in Beagle dog; assay type: ADME, Canis lupus familiaris; details: in vivo
# [17] = Half-life in Beagle dog; assay type: ADME, Canis lupus familiaris; details: in vivo
# [18] = Oral bioavailability in Beagle dog; assay type: ADME, organism-based, Canis lupus familiaris; details: in vivo
# Sequence of PI3-kinase p110-delta/p85-alpha (P27986 whole entry, one chain of several, canonical isoform): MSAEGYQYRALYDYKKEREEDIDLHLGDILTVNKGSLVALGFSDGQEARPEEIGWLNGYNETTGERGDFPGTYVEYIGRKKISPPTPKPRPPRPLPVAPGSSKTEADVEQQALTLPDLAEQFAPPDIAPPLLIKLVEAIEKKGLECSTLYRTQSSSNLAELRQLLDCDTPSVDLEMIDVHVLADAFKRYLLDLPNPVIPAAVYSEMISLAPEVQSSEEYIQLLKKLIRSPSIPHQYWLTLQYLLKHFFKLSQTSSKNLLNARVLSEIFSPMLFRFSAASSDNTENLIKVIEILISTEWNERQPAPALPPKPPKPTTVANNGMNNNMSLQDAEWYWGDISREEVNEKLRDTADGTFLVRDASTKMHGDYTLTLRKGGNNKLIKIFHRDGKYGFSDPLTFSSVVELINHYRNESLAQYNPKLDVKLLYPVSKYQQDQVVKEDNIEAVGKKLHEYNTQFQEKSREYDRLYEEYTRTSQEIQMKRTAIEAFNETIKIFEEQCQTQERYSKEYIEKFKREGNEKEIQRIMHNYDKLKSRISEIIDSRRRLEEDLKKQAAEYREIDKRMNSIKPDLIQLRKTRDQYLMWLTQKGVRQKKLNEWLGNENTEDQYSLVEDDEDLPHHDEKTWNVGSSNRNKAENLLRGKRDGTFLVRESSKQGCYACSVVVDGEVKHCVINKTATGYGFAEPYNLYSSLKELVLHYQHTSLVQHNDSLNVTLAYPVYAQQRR
Compound,IC50 [1],IC50 [2],IC50 [3],logD [4],clearance [5],CL [6],Vd [7],Vdu [8],half-life [9],bioavailability [10],IC50 [11],Papp [12],clearance [13],CL [14],Vd [15],Vdu [16],half-life [17],bioavailability [18]
CCC(=O)N1CC[C@H](Nc2ncnc3c2nc(-c2cnn(CC)c2C)n3CC(F)F)C1,1.3 nM,14 nM,3100 nM,–,–,–,–,–,–,–,–,–,–,–,–,–,–,–
CCC(=O)N1CC[C@H](Nc2ncnc3c2nc(-c2ccn(CC)c2C)n3C)C1,26 nM,125 nM,–,–,–,–,–,–,–,–,–,–,–,–,–,–,–,–
CCn1c(-c2cnc(C)nc2)nc2c(N[C@H]3CCN(C(=O)C4CCOCC4)C3)ncnc21,2.1 nM,33 nM,8900 nM,0.7,24 mL/min/kg,220 mL/min/kg,0.7 L/kg,4.3 L/kg,1.4 h,18%,–,–,–,–,–,–,–,–
CCn1c(-c2ccc(C(F)(F)F)nc2)nc2c(O[C@H]3CCN(C(=O)[C@H]4C[C@@H](OC)C4)C3)ncnc21,1.6 nM,67 nM,4100 nM,2.2,3.6 mL/min/kg,130 mL/min/kg,0.4 L/kg,13 L/kg,3.3 h,39%,73 nM,35 ×10⁻⁶ cm/s,6.2 mL/min/kg,18 mL/min/kg,1.1 L/kg,2.5 L/kg,2.6 h,100%
CCC(=O)N1CC[C@H](Nc2ncnc3c2nc(-c2cnn(CC)c2C)n3C)C1,–,–,7300 nM,–,–,–,–,–,–,–,–,–,–,–,–,–,–,–
CCn1c(-c2cnc(C)nc2)nc2c(O[C@H]3CCN(C(=O)c4cocn4)C3)ncnc21,6.4 nM,94 nM,> 10000 nM,0.7,3.7 mL/min/kg,25 mL/min/kg,0.5 L/kg,3.2 L/kg,1.7 h,50%,600 nM,–,9.3 mL/min/kg,16 mL/min/kg,1.7 L/kg,1.9 L/kg,1.8 h,100%
CCCn1c(-c2cnc(C)nc2)nc2c(N[C@H]3CCN(C(=O)CC)C3)ncnc21,135 nM,455 nM,–,–,–,–,–,–,–,–,–,–,–,–,–,–,–,–
CCC(=O)N1CC[C@H](Nc2ncnc3c2nc(-c2cnc(C)nc2)n3C)C1,4.2 nM,71 nM,2000 nM,–,–,–,–,–,–,–,–,–,–,–,–,–,–,–
CCn1c(-c2ccc(C(F)(F)F)nc2)nc2c(O[C@H]3CCN(C(=O)N4CC(OC)C4)C3)ncnc21,1.3 nM,43 nM,2200 nM,2.1,1.7 mL/min/kg,29 mL/min/kg,0.2 L/kg,4.2 L/kg,2 h,52%,68 nM,33 ×10⁻⁶ cm/s,12 mL/min/kg,46 mL/min/kg,0.7 L/kg,1.7 L/kg,0.7 h,100%
CCCn1c(-c2cnn(CC)c2C)nc2c(N[C@H]3CCN(C(=O)CC)C3)ncnc21,21 nM,198 nM,3700 nM,–,–,–,–,–,–,–,–,–,–,–,–,–,–,–
CCC(=O)N1CC[C@H](Nc2ncnc3c2nc(-c2cnc(OC)c(F)c2)n3C)C1,2.6 nM,20 nM,1300 nM,–,–,–,–,–,–,–,–,–,–,–,–,–,–,–
CCC(=O)N1CC[C@H](Nc2ncnc3c2nc(-c2cnc(C(C)(C)C)s2)n3C)C1,0.7 nM,4 nM,1600 nM,–,–,–,–,–,–,–,–,–,–,–,–,–,–,–
CCn1c(-c2cnc(C)nc2)nc2c(N[C@H]3CCN(C(=O)N4CC(OC)C4)C3)ncnc21,0.7 nM,67 nM,4700 nM,0.7,11 mL/min/kg,93 mL/min/kg,0.7 L/kg,4.8 L/kg,4 h,16%,9 nM,10 ×10⁻⁶ cm/s,9 mL/min/kg,19 mL/min/kg,1.4 L/kg,1.9 L/kg,1.7 h,69%
CCn1c(-c2ccc(C(F)(F)F)nc2)nc2c(O[C@H]3CCN(C(=O)c4cocn4)C3)ncnc21,7.5 nM,300 nM,4400 nM,2,1.3 mL/min/kg,13 mL/min/kg,0.3 L/kg,2.6 L/kg,6 h,100%,380 nM,29 ×10⁻⁶ cm/s,5.6 mL/min/kg,19 mL/min/kg,1.2 L/kg,3.4 L/kg,2.5 h,100%
CCC(=O)N1CC[C@H](Nc2ncnc3c2nc(-c2cnn(CC)c2C)n3CC)C1,0.2 nM,2 nM,2300 nM,–,–,–,–,–,–,–,–,–,–,–,–,–,–,–
CCC(=O)N1CC[C@H](Nc2ncnc3c2nc(-c2cnn(CC)c2C)n3C2CC2)C1,39 nM,720 nM,–,–,–,–,–,–,–,–,–,–,–,–,–,–,–,–
CCn1c(-c2cnc(C)nc2)nc2c(O[C@H]3CCN(C(=O)C4CC4)C3)ncnc21,5.9 nM,80 nM,5300 nM,1,9.7 mL/min/kg,44 mL/min/kg,0.7 L/kg,2.8 L/kg,1.8 h,64%,270 nM,28 ×10⁻⁶ cm/s,4.9 mL/min/kg,7 mL/min/kg,0.6 L/kg,0.7 L/kg,1.3 h,100%
CCC(=O)N1CC[C@H](Nc2ncnc3c2nc(-c2cnn(CC)c2C)n3CC(F)(F)F)C1,5.9 nM,330 nM,9300 nM,–,–,–,–,–,–,–,–,–,–,–,–,–,–,–
CCC(=O)N1CC[C@H](Nc2ncnc3[nH]c(-c4cnn(CC)c4C)nc23)C1,7.6 nM,875 nM,5400 nM,–,–,–,–,–,–,–,–,–,–,–,–,–,–,–
CCC(=O)N1CC[C@H](Nc2ncnc3c2nc(-c2cnc(OC)c(C)c2)n3C)C1,–,6 nM,300 nM,–,–,–,–,–,–,–,–,–,–,–,–,–,–,–
CCC(=O)N1CC[C@H](Nc2ncnc3c2nc(-c2ccc(C)nc2)n3C)C1,5 nM,160 nM,3800 nM,–,–,–,–,–,–,–,–,–,–,–,–,–,–,–
CCC(=O)N1CC[C@H](Nc2ncnc3c2nc(-c2ccc(OC)nc2)n3C)C1,–,67 nM,1900 nM,–,–,–,–,–,–,–,–,–,–,–,–,–,–,–
CCn1c(-c2cnc(C)nc2)nc2c(N[C@H]3CCN(C(=O)[C@H]4C[C@@H](OC)C4)C3)ncnc21,0.8 nM,34 nM,6100 nM,0.9,6.9 mL/min/kg,81 mL/min/kg,1.5 L/kg,4.1 L/kg,2.3 h,52%,26 nM,10 ×10⁻⁶ cm/s,7.1 mL/min/kg,13 mL/min/kg,1.5 L/kg,2 L/kg,4.3 h,85%
CCC(=O)N1CC[C@H](Nc2ncnc3c2nc(-c2cnn(CC)c2C)n3CC2CC2)C1,–,1350 nM,–,–,–,–,–,–,–,–,–,–,–,–,–,–,–,–
CCn1c(-c2cnc(C)nc2)nc2c(N[C@H]3CCN(C(=O)C4CCC4)C3)ncnc21,0.4 nM,4 nM,1200 nM,1.2,13 mL/min/kg,320 mL/min/kg,0.5 L/kg,9.2 L/kg,0.6 h,74%,14 nM,32 ×10⁻⁶ cm/s,11 mL/min/kg,30 mL/min/kg,1.3 L/kg,2.3 L/kg,1.3 h,84%
CCC(=O)N1CC[C@H](Nc2ncnc3c2nc(-c2ccc(C(F)(F)F)nc2)n3C)C1,9.9 nM,66 nM,700 nM,–,–,–,–,–,–,–,–,–,–,–,–,–,–,–
